{
  "source": "paper PMC7925909",
  "about": "“The Multi-Level Mechanism of Action of a Pan-Ras Inhibitor Explains its Antiproliferative Activity on Cetuximab-Resistant Cancer Cells” (Frontiers in Molecular Biosciences, 2021)",
  "key": {"HRas": {"target": "T1, HRas (Homo sapiens, UniProt P01112)", "T1 construct": "N-terminal His-tagged, residues 1-166", "T1 sequence (P01112 1-166)": "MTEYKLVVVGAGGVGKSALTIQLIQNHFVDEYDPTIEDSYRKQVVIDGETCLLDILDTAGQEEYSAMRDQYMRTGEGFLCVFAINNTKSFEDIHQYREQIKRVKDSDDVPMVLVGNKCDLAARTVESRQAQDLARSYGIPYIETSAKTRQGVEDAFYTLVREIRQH", "assay": "STD-NMR and native MS of the HRas-GDP-cmp4 ternary complex; the EC50 is from SPR inhibition of RasGRF1 binding to HRas-GDP; mant-nucleotide dissociation/exchange also inhibited"}, "HRas^G13D": {"target": "T2, HRas^G13D (Homo sapiens, UniProt P01112, G13D)", "T2 construct": "N-terminal His-tagged, residues 1-166", "T2 sequence (P01112 1-166 G13D)": "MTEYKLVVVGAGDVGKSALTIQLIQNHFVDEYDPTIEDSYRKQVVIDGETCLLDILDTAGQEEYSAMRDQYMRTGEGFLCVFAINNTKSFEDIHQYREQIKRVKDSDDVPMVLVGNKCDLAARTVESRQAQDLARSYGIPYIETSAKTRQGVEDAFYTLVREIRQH", "assay": "STD-NMR on HRas G13D-GDP; dose-dependent inhibition of intrinsic and GEF-mediated mant-nucleotide dissociation/exchange", "format": "binding"}},
  "data": [
    {"compound": "OC[C@H]1O[C@@H](O[C@H]2[C@H](O)[C@@H](O)[C@H](N(Cc3ccc(O)c(O)c3)OCc3ccccc3)O[C@@H]2CO)[C@H](O)[C@@H](O)[C@H]1O", "note": "[cmp4]", "values": [
      {"measurement": "EC50", "setting": "HRas", "value": "~170", "unit": "µM"},
      {"measurement": "STD-NMR on HRas G13D-GDP; dose-dependent inhibition of intrinsic and GEF-mediate", "setting": "HRas^G13D", "value": "STD analysis on HRas^G13D mutant protein saturated with cmp4 shows that cmp4 also interacts with the mutant protein"}
    ]}
  ]
}
